In patent US3991200A, “Substituted nitroimidazolyl thiadiazoles and oxadiazoles as antibacterial agents and growth promoting compounds” (American Cyanamid Company, priority 1973, dated 1976):
Values joined by “and” are separate entries in the source; they are usually repeats but may differ in a detail not shown here. Identical values can stand only once.

Columns and labels:
[1] = tested on: Salmonella gallinarum; assay: controlling fowl typhoid in chicks, medicated feed; type: in vivo, Salmonella gallinarum (in sex-linked pullet chicks); settings: 10 days
Experimental: Groups of five one-day old sex-linked pullet checks are infected orally by gavage with 0.5 ml. of a 10^-^2 dilution of a five-hour Trypticase Soy Broth culture of Salmonella gallinarum, the causative agent of fowl typhoid. Each chick receives approximately 6 × 10^5 viable cells. Medication is administered continuously in the feed, beginning 3 hours before infection and continuing for 10 days, at which time the test is terminated and the number of survivors in each group recorded. Each test utilizes two control groups of chicks, the first group comprising 20 chicks which are infected and untreated, and the second group comprising 10 chicks which are uninfected and untreated. The results of the tests are set forth in the following Table III (in some instances, the results from two or more tests are combined): […]

[2] = tested on: Escherichia coli; assay: controlling colibacillosis in chicks infected with Escherichia coli, single oral dose; type: in vivo, Escherichia coli (in sex-linked pullet chicks); settings: 12 days after treatment
Experimental: Three groups of 10 five-day old sex-linked pullet chicks are infected parenterally, in the left thoracic air sac, with 0.2 ml. of a 10^-^1 dilution of a Trypticase Soy Broth culture of Escherichia coli, the causative agent of colibacillosis in poultry. The compounds to be tested are administered by gavage as a single oral dose in an aqueous solution or suspension, and the chicks are permitted to feed ad libitum the feed composition prepared in Example 44. Twelve days after treatment, the test is terminated and the number of survivors in each group recorded.
Four groups of 40, five-day old sex-linked pullet chicks are infected in the same manner as herein set forth with Escherichia coli. […] Twelve days after treatment, the test is terminated and the number of survivors in each group recorded.

[3] = tested on: Pasteurella multocida; assay: controlling a Pasteurella multocida infection in mice; type: in vivo, Pasteurella multocida (in Swiss Webster female mice); settings: 336 h, 2 mg./mouse by gavage, two weeks post-infection, read-out: Survivors/Total (converted)
Experimental: Swiss Webster, female mice weighing 22±2 g. were infected by intrapeutoneal injection of 0.5 ml. of a 5 hour Trypticase Soy Broth culture containing 10^7 cfu. of P. multocida. Each mouse was given by gavage at the time of infection 2 mg. of the test drug suspended in 0.2% agar.

[4] = tested on: Pasteurella multocida; assay: as above; type: in vivo, Pasteurella multocida (in Swiss Webster female mice); settings: 336 h, two weeks post-infection, read-out: Survivors/Total (converted); for responders at 0.5 mg: 0.5 mg./mouse by gavage; for responders at 0.25 mg: 0.25 mg./mouse by gavage; for responders at 1 mg: 1 mg./mouse by gavage
[5] = enhancing the growth rate and improving feed efficiency, chicks; type: in vivo
Source text: Day-old chicks are divided into groups of ten birds each, five males and five females. These groups are then weighted, placed in pens and given free access to water and feed. […] All feed is weighed such that an accurate determination as to the amount of gain per unit of feed can be ascertained. […]

[6] = 0.025% in feed, 10 chicks tested
[7] = 0.006% in feed, 5 chicks tested
[8] = 0.025% in feed, 5 chicks tested
[9] = 0.006% in feed, 10 chicks tested
[10] = 100 PPM in diet, average of two groups
[11] = 100 PPM in diet, groups of 10 and 9 birds, listed as 2-(2-amino-5-thiadiazolyl)-1-(2-hydroxyethyl)5-nitroimidazole
[12] = 10 ppm in diet, 10 birds, 19 days
[13] = 10 ppm in diet, 10 birds, 19 days, listed as 1-[5-(1-Methyl-5-nitro-2-imidazolyl)-1,3,4-thiadiazol-2-yl]-4-(2-thiazolyl)piper
[14] = 10 ppm in diet, 10 birds, listed as 1-[5-(1-Methyl-5-nitro-2-imidazolyl)-1,3,4-thiadiazol-2-yl]-4-(2-thiazolyl)piper

With CC(=O)Nc1nnc(-c2ncc([N+](=O)[O-])n2C)o1 [2-(2-Acetamido-5-oxadiazolyl)-1-methyl-5-nitroimidazole] the Survivors [1, 6] was 8 and the Survivors ([1]; 0.1% in feed, 10 chicks tested) was 10.
For CC(=O)Nc1nnc(-c2ncc([N+](=O)[O-])n2C)s1 [2-(2-Acetamido-5-thiadiazolyl)-1-methyl-5-nitro-imidazole], the Survivors ([2]; 10 mg/kg single oral dose, 40 chicks tested) was 29, the Survivors ([2]; 20 mg/kg single oral dose, 40 chicks tested) was 35 and the Survivors ([2]; 40 mg/kg single oral dose, 40 chicks tested) was 39. For the same compound, the Survivors [1, 7] was 3, the Survivors [1, 8] was 4 and the Survivors ([1]; 0.1% in feed, 5 chicks tested) was 5.
Nc1nnc(-c2ncc([N+](=O)[O-])n2CCO)o1 [2-(2-Amino-5-oxadiazolyl)-1-(2-hydroxyethyl)-5-nitroimidazole] showed a responders at 2 mg [3] of 100% and a responders at 0.5 mg [4] of 90%.
Compound Nc1nnc(-c2ncc([N+](=O)[O-])n2Cc2ccccc2)o1 [2-(2-Amino-5-oxadiazolyl)-1-benzyl-5-nitroimidazole] has a Survivors [1, 9] of 1, a Survivors [1, 6] of 1 and a Survivors ([1]; 0.1% in feed, 10 chicks tested) of 9.
Nc1nnc(-c2ncc([N+](=O)[O-])n2Cc2ccccc2)s1 [2-(2-Amino-5-thiadiazolyl)-1-benzyl-5-nitroimidazole] showed a Survivors [1, 6] of 4, a Survivors ([1]; 0.1% in feed, 10 chicks tested) of 10 and a responders at 2 mg [3] of 0%.
In the case of Nc1nnc(-c2ncc([N+](=O)[O-])n2CCO)s1 [2-(2-Amino-5-thiodiazolyl)-1-(2-hydroxyethyl)-5-nitroimidazole], the Survivors [1, 6] is reported as 8, the Survivors ([1]; 0.1% in feed, 10 chicks tested) is reported as 10 and the “% inc. over Controls, F/G” value ([5]; 100 PPM in diet, 19 days) is reported as 6.5%. For the same compound, the “% inc. over Controls, Gain” value ([5]; 100 PPM in diet, 19 days) was 7.6%, the “Average Gain 19 Days” value [5, 10] was 297 Grams and the “Average Wt. at 19 days” value [5, 10] was 340 Grams. For the same compound, the “Average lb. feed/lb. gain” value ([5]; 100 PPM in diet, average of two groups, 19 days) was 1.525 lb. feed/lb. gain, the lb.feed/lb. gain ([5]; 100 PPM in diet, groups of 10 and 9 birds, 19 days, listed as 2-(2-amino-5-thiadiazolyl)-1-(2-hydroxyethyl)5-nitroimidazole) was 1.53 lb. feed/lb. gain and 1.52 lb. feed/lb. gain and the “Gain 19 Days” value [5, 11] was 309 Grams and 285 Grams. The “Wt. at 19 days” value [5, 11] was 352.2 Grams and 327.8 Grams, the responders at 0.25 mg [4] was 76.7% and the responders at 0.5 mg [4] was 90%. The responders at 1 mg [4] was 100%.
For Cn1c([N+](=O)[O-])cnc1-c1nnc(NC2CCCCC2)s1 [2-(2-Cyclohexylamino-5-thiadiazolyl)-1-5-nitroimidazole], the Survivors ([1]; 0.1% in feed, 10 chicks tested) was 8.
Cn1c([N+](=O)[O-])cnc1-c1nnc(NC(=O)C(Cl)Cl)s1 [2-(2-Dichloroacetamido-5-thiadiazolyl)-1-methyl-5-nitroimidazole] gave a Survivors ([1]; 0.025% in feed, 15 chicks tested) of 3 and a Survivors ([1]; 0.1% in feed, 10 chicks tested) of 7.
Work on CCNc1nnc(-c2ncc([N+](=O)[O-])n2C)s1 [2-(2-Ethylamino-5-thiadiazolyl)-1-methyl-5-nitroimidazole] yielded a Survivors [1, 7] of 3, a Survivors [1, 6] of 3 and a Survivors ([1]; 0.1% in feed, 10 chicks tested) of 10. It also gave a responders at 2 mg [3] of 100%.
Compound Cn1c([N+](=O)[O-])cnc1-c1nnc(NCO)s1 [2-(2-Hydroxymethylamino-5-thiadiazolyl)-1-methyl-5-nitroimidazole] has a Survivors [1, 9] of 2, a Survivors [1, 6] of 2 and a Survivors ([1]; 0.1% in feed, 10 chicks tested) of 10. For the same compound, the responders at 2 mg [3] was 100%.
Work on CNc1nnc(-c2ncc([N+](=O)[O-])n2C)o1 [2-(2-Methylamino-5-oxadiazolyl)-1-methyl-5-nitroimidazole] yielded a Survivors [1, 9] of 8, a Survivors [1, 6] of 10 and a Survivors ([1]; 0.1% in feed, 5 chicks tested) of 5.
Compound Cn1c([N+](=O)[O-])cnc1-c1nnc(NC(=O)CN2CCOCC2)s1 [2-(2-Morpholinoacetamido-5-thiadiazolyl)-1-methyl-5-nitroimidazole] has a Survivors [1, 8] of 1, a Survivors ([1]; 0.1% in feed, 10 chicks tested) of 10 and a responders at 2 mg [3] of 20%.
With Cn1c([N+](=O)[O-])cnc1-c1nnc(N2CCCCC2)s1 [2-(2-Piperidino-5-thiadiazolyl)-1-methyl-5-nitroimidazole] the Survivors ([1]; 0.1% in feed, 10 chicks tested) was 4, the “Gain 19 Days” value ([5]; 10 ppm in diet, 10 birds) was 292.7 Grams and the “Weight at 19 days” value ([5]; 10 ppm in diet, 10 birds) was 334.7 Grams. For the same compound, the “% Increase Over Controls, F/G” value [5, 12] was 2.7%, the “% Increase Over Controls, Gain” value [5, 12] was 1.0% and the lb.feed/lb. gain [5, 12] was 1.48 lb.feed/lb. gain. The responders at 0.25 mg [4] was 50%, the responders at 0.5 mg [4] was 40% and the responders at 1 mg [4] was 90%.
In the case of CCCn1c([N+](=O)[O-])cnc1-c1nnc(N)s1 [2-(2-amino-5-thiadiazolyl)-1-propyl-5-nitroimidazolo], the Survivors ([1]; 0.1% in feed, 10 chicks tested) is reported as 6.
With CN(C)c1nnc(-c2ncc([N+](=O)[O-])n2CCO)o1 [2-(2-dimethylamino-5-oxadiazolyl)-1-(2-hydroxyethyl)-5-nitroimidazole] the Survivors [1, 6] was 2 and the Survivors ([1]; 0.1% in feed, 10 chicks tested) was 5.
CNc1nnc(-c2ncc([N+](=O)[O-])n2CCO)o1 [2-(2-methylamino-5-oxadiazolyl)-1-(2-hydroxyethyl)-5-nitroimidazole] gave a Survivors ([1]; 0.1% in feed, 10 chicks tested) of 6.
In the case of CCCCCCNc1nnc(-c2ncc([N+](=O)[O-])n2C)s1 [2-(2-n-Hexylamino-5-thiadiazolyl)-1-methyl-5-nitroimidazole], the Survivors ([1]; 0.1% in feed, 10 chicks tested) is reported as 6, the responders at 0.25 mg [4] is reported as 20% and the responders at 0.5 mg [4] is reported as 80%. For the same compound, the responders at 1 mg [4] was 90%.
In the case of Cn1c([N+](=O)[O-])cnc1-c1nnc(NC(C)(C)C)s1 [2-(2-t-Butylamino-5-thiadiazolyl)-1-methyl-5-nitroimidazole], the Survivors ([1]; 0.1% in feed, 10 chicks tested) is reported as 6.
For Cn1c([N+](=O)[O-])cnc1-c1nnc(N2CCNCC2)s1 [2-[2-(1-Piperazinyl)-5-thiadiazolyl]-1-methyl-5-nitroimidazole], the Survivors ([2]; 40 mg/kg single oral dose, 20 chicks tested) was 6, the Survivors ([2]; 160 mg/kg single oral dose, 20 chicks tested) was 18 and the Survivors [1, 6] was 1. The Survivors ([1]; 0.1% in feed, 10 chicks tested) was 8 and the responders at 2 mg [3] was 10%.
In the case of CN1CCN(c2nnc(-c3ncc([N+](=O)[O-])n3C)s2)CC1 [2-[2-(4-Methyl-1-piperazinyl)-5-thiadiazolyl)-1-methyl-5-nitroimidazole], the Survivors ([1]; 0.1% in feed, 10 chicks tested) is reported as 4.
Cn1c([N+](=O)[O-])cnc1-c1nnc(N2CCN(CCO)CC2)s1 [2-[4-(2-Hydroxyethyl)-1-piperazinyl-5-thiadiazolyl]-1-methyl-5-nitroimidazole] showed a Survivors [1, 6] of 3, a Survivors ([1]; 0.1% in feed, 10 chicks tested) of 7 and a responders at 2 mg [3] of 100%.
CN(CCO)c1nnc(-c2ncc([N+](=O)[O-])n2C)s1 [2-{2-N-(2-Hydroxyethyl)methylamino]-5-thiadiazolyl}-1-methyl-5-nitroimidazolo] showed a Survivors ([1]; 0.1% in feed, 10 chicks tested) of 8, a responders at 2 mg [3] of 100% and a responders at 0.5 mg [4] of 10%. The responders at 1 mg [4] was 30%.
In the case of Cn1c([N+](=O)[O-])cnc1-c1nnc(N2CCN(c3nccs3)CC2)s1 [2-{2-[4-(2-Thiazolyl)-1-piperazinyl]-5-thiadiazolyl]-1-methyl-5-nitroimidazole], the responders at 2 mg [3] is reported as 20%, the “% Increase Over Controls, F/G” value [5, 13] is reported as 4.1% and 2.0% and the “% Increase Over Controls, Gain” value [5, 13] is reported as 5.0% and 9.0%. For the same compound, the lb.feed/lb. gain [5, 13] was 1.47 lb.feed/lb. gain and 1.50 lb.feed/lb. gain, the “Gain 19 Days” value [5, 14] was 315.5 Grams and 303.2 Grams and the “Weight at 19 days” value [5, 14] was 337.8 Grams and 346.9 Grams.
CN(C)CCCC1CCN(c2nnc(-c3ncc([N+](=O)[O-])n3C)s2)CC1 [2-{2-[4-(3-Dimethylaminopropyl)-1-piperidino]-5-thiadiazolyl}-1-methyl-5-nitroimidazole] gave a responders at 2 mg [3] of 100% and a responders at 0.5 mg [4] of 90%.
With CC(=O)Nc1nnc(-c2ncc([N+](=O)[O-])n2CCO)s1 [N-{5-[1-(2-Hydroxyethyl)-5-nitro-2-imidazolyl]-1,3,4-thiadiazol-2-yl-acetamide] the “Gain 19 Days” value ([5]; 10 ppm in diet, 10 birds) was 305.5 Grams, the “Weight at 19 days” value ([5]; 10 ppm in diet, 10 birds) was 345.9 Grams and the “% Increase Over Controls, F/G” value [5, 12] was 0.6%. For the same compound, the “% Increase Over Controls, Gain” value [5, 12] was 0.7% and the lb.feed/lb. gain [5, 12] was 1.57 lb.feed/lb. gain.
